From patent publication US7825264B2, “Substituted heterocycles, their use as medicament, and pharmaceutical preparations comprising them” (sanofi-aventis, priority 2005, dated 2010)
pIC50: −log10 of the molar value.

Experiments:
Human Kv1.5 channels = molecular target: T1, Human Kv1.5 channels (Homo sapiens, UniProt P22460); assay: Activity on the Kv1.5 channel: two-microelectrode voltage clamp on Xenopus oocytes expressing Kv1.5; assay type: cell-based; conditions: human Kv1.5 expressed in Xenopus oocytes, room temperature, Hill equation; read-out: Kv1.5 IC-50
T1 construct: expressed in transfected cells; host or cells: Xenopus laevis oocytes injected with RNA synthesized in vitro
T1 sequence (P22460 whole entry): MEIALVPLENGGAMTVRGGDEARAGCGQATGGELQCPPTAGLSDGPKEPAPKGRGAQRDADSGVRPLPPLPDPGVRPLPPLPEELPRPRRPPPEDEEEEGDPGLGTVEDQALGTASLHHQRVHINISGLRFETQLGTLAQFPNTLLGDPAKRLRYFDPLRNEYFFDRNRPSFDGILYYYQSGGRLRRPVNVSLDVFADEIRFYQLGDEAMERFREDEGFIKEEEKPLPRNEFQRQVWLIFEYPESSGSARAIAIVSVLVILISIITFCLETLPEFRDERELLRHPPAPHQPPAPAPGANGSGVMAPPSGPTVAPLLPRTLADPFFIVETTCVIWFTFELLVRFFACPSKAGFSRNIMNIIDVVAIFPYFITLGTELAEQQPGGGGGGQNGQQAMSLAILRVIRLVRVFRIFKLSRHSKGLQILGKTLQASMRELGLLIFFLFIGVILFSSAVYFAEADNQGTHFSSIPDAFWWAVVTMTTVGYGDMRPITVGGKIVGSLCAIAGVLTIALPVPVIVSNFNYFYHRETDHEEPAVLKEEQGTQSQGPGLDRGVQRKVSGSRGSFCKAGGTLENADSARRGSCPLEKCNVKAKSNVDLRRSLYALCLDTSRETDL
Method: Determination of the Activity on the Kv1.5 Channel
Human Kv1.5 channels were expressed in xenopus oocytes. For this purpose, firstly oocytes were isolated from Xenopus laevis and defolliculated. Kv1.5-encoding RNA synthesized in vitro was then injected into these oocytes. After Kv1.5 protein expression for 1-7 days, Kv1.5 currents were measured on the oocytes using the two-microelectrode voltage clamp technique. The Kv1.5 channels were in this case usually activated with voltage jumps lasting 500 ms to 0 mV and 40 mV. A solution of the following composition flowed through the bath: NaCl 96 mM, KCl 2 mM, CaCl2 1.8 mM, MgCl2 1 mM, HEPES 5 mM (titrated to pH 7.4 with NaOH). These experiments were carried out at room temperature. The following were employed for data acquisition and analysis: Geneclamp amplifier (Axon Instruments, Foster City, USA) and MacLab D/A converter and software (ADInstruments, Castle Hill, Australia). The substances of the invention were tested by adding them in various concentrations to the bath solution. The effects of the substances were calculated as percent inhibition of the Kv1.5 control current which was obtained when no substance was added to the solution. The data were then extrapolated using the Hill equation in order to determine the inhibitory concentrations IC50 for the respective substances.

Human TASK-1 channels = Human TASK-1 channels (UniProt O35111); assay: Activity on the TASK-1 channel: two-microelectrode voltage clamp on Xenopus oocytes expressing TASK-1; assay type: cell-based; conditions: TASK-1 expressed in Xenopus oocytes, room temperature, Hill equation; read-out: mTask-1 IC-50

pIC50 (Human Kv1.5 channels): 5.38
pIC50 (Human TASK-1 channels): 6.40
SMILES: N#Cc1ccc(O[C@@H](c2cccc3cccnc23)[C@@H](c2ccc(F)cc2)N2CCCC2=O)cc1 (racemic) [Example 9, 4-[(1S′,2R′)-2-(4-Fluorophenyl)-2-(2-oxopyrrolidin-1-yl)-1-quinolin-8-ylethoxy]benzonitrile]
